Laboratory results reported in PubChem BioAssay (NCI).
Where “and” joins values, the source holds several entries; their conditions need not be identical. Equal entries are not always repeated.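 Each compound was tested at five concentrations against cells in 96-well plates for 48 hours. GI50 is the concentration that inhibits growth by half. TGI: total growth inhibition.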

Columns and labels:
Test in all cases: DTP human tumour cell line panel, 48 h
[1] = test system: HCC-2998 colon
[2] = test system: HL-60(TB) leukemia
[3] = test system: M14 melanoma
[4] = test system: MCF7 breast
[5] = test system: MDA-MB-231 breast
[6] = test system: NCI-H460 lung
[7] = test system: OVCAR-4 ovarian
[8] = test system: SF-539 CNS
[9] = test system: SR leukemia

## Cn1cc(-c2ccc3c(Nc4cccc(NC(=O)Nc5cccc(F)c5)c4)ncnc3c2)cn1
[1]
  GI50: 4.81 µM
  TGI: 16.2 µM
[2]
  GI50: 5.9 µM
  TGI: 28 µM
[3]
  GI50: 2.61 µM
  TGI: 14.9 µM
[4]
  GI50: 1.14 µM
  TGI: 5.07 µM
[5]
  GI50: 2.88 µM
  TGI: 12.3 µM
[6]
  GI50: 0.984 µM
  TGI: 2.41 µM
[7]
  GI50: 1.85 µM
  TGI: 4.41 µM
[8]
  GI50: 0.0554 µM
  TGI: 2.21 µM
[9]
  GI50: 1.24 µM
  TGI: > 100 µM

## COc1cc(C2c3[nH]c4ccccc4c3C[C@H]3COC(=O)N23)cc(OC)c1OC (stereo not given in full)
[1]
  GI50: < 0.01 µM
[2]
  GI50: < 0.01 µM
  TGI: 0.0961 µM and < 0.01 µM
[3]
  TGI: 8.97 µM
[4]
  GI50: < 0.01 µM
[6]
  GI50: < 0.01 µM
[7]
  GI50: 0.507 µM
  TGI: > 100 µM
[8]
  GI50: < 0.01 µM

## COc1cc2c(cc1O)CC[C@@H]1[C@@H]2CC[C@]2(C)[C@@H](NCCN(C)C)CC[C@@H]12
[1]
  GI50: 0.22 µM
  TGI: 0.716 µM
[2]
  GI50: 0.173 µM
  TGI: 0.675 µM
[3]
  GI50: 0.0822 µM
  TGI: 0.213 µM
[4]
  GI50: 0.127 µM
  TGI: 0.514 µM
[5]
  GI50: 0.0979 µM
  TGI: 0.391 µM
[6]
  GI50: 0.324 µM
  TGI: 0.823 µM
[7]
  GI50: 0.339 µM
  TGI: 0.943 µM
[8]
  GI50: 0.083 µM
  TGI: 0.264 µM
[9]
  GI50: 0.0989 µM
  TGI: 0.437 µM

## Cc1c(N2CCCC2)cc2c(c1NC(=O)c1ccccc1Cl)C(C)(C)CC2(C)C
[1]
  TGI: 25.9 µM
[3]
  TGI: 26.8 µM
[4]
  TGI: 28.4 µM
[5]
  TGI: 29.3 µM
[6]
  TGI: 26 µM
[7]
  TGI: 33.3 µM
[8]
  TGI: 39.7 µM
[9]
  TGI: 38.1 µM

## CN(C)c1ccc2c(=O)c3ccccc3oc2n1
[1]
  TGI: > 100 µM
[2]
  TGI: > 100 µM
[3]
  TGI: > 100 µM
[6]
  TGI: > 100 µM
[7]
  TGI: > 100 µM

## O=C1[C@@H]2C(c3ccccc3Br)=NO[C@@H]2C(=O)N1c1ccc(Cc2ccc(N3C(=O)[C@H]4C(c5ccccc5Br)=NO[C@H]4C3=O)cc2)cc1
[1]
  TGI: > 100 µM
[2]
  TGI: > 100 µM
[3]
  TGI: > 100 µM
[6]
  TGI: > 100 µM
[7]
  TGI: > 100 µM
[8]
  TGI: > 100 µM

## CC[C@]1(O)CC(OC2CC(N(C)C)C(O)C(C)O2)c2c(cc3c(c2O)C(=O)c2c(O)cccc2C3=O)[C@@H]1C(=O)OC (stereo not given in full)
[1]
  TGI: 1.54 µM
[3]
  TGI: 2.07 µM
[4]
  TGI: 6.17 µM
[5]
  TGI: 4.2 µM
[6]
  TGI: 3.46 µM
[7]
  TGI: 1.49 µM
[8]
  TGI: 2.51 µM

## CC(C)(C)NNC(=O)/C(=C/c1ccc([N+](=O)[O-])cc1)NC(=O)c1ccccc1
[1]
  TGI: > 100 µM
[2]
  TGI: > 100 µM
[3]
  TGI: > 100 µM
[6]
  TGI: > 100 µM
[7]
  TGI: > 100 µM
[8]
  TGI: > 100 µM
[9]
  TGI: 46.4 µM

## CCCCCCCCCCCCNC(C)=O
[1]
  TGI: 37.5 µM
[3]
  TGI: 32.6 µM
[4]
  TGI: 32.4 µM
[5]
  TGI: 28.6 µM
[6]
  TGI: 32.7 µM
[8]
  TGI: 29.9 µM

## O=C(Nc1ccc(Cl)c(Cl)c1)c1cccc(NC2=C(Cl)C(=O)N(Cc3ccccc3)C2=O)c1
[2]
  GI50: 45.8 µM
  TGI: > 100 µM
[3]
  GI50: 66 µM
  TGI: > 100 µM
[4]
  GI50: 22.5 µM
  TGI: 96.1 µM
[5]
  GI50: 26.4 µM
  TGI: > 100 µM
[6]
  GI50: 30.3 µM
  TGI: > 100 µM
[7]
  GI50: 48.3 µM
  TGI: > 100 µM
[8]
  GI50: 7.75 µM
  TGI: 38.2 µM
[9]
  GI50: 8.37 µM
  TGI: 68 µM

## CN(Cc1cnc2nc(N)nc(N)c2n1)c1ccc(C(=O)NC(CCC(=O)O)C(=O)O)cc1C(F)(F)F (stereo not given)
[1]
  TGI: > 100 µM
[2]
  TGI: > 100 µM
[3]
  TGI: > 100 µM
[4]
  TGI: > 100 µM
[5]
  TGI: > 100 µM
[6]
  TGI: > 100 µM
[7]
  TGI: > 100 µM
[8]
  TGI: > 100 µM
[9]
  TGI: 1.24 µM

## CC(C)/C=C1\CCC(CN2CCCC2)C1=O (stereo not given)
[1]
  TGI: 34.2 µM
[2]
  TGI: 14.4 µM
[3]
  TGI: 24.2 µM
[6]
  TGI: > 79.7 µM
[7]
  TGI: 32.5 µM
[8]
  TGI: 35.6 µM
[9]
  TGI: 8.09 µM

## COc1ccc(C2CC(=O)c3c(O)cc(O)cc3O2)cc1O (stereo not given)
[1]
  TGI: > 100 µM
[2]
  TGI: > 100 µM
[3]
  TGI: > 100 µM
[6]
  TGI: > 100 µM
[7]
  TGI: > 100 µM
[8]
  TGI: > 100 µM

## CCOC(=O)c1c2c(c(O)c3ccccc3c(O)n(Cc3ccc(OC)cc3)c1C)C(=O)C=CC2=O
[1]
  GI50: > 100 µM
  TGI: > 100 µM
[3]
  GI50: > 100 µM
  TGI: > 100 µM
[4]
  GI50: > 100 µM
  TGI: > 100 µM
[5]
  GI50: > 100 µM
  TGI: > 100 µM
[6]
  GI50: > 100 µM
  TGI: > 100 µM
[7]
  GI50: > 100 µM
  TGI: > 100 µM
[8]
  GI50: 84.6 µM
  TGI: > 100 µM

## C[C@@H]1COCCN1c1cc(C2([S@](C)(=N)=O)CC2)nc(-c2ccnc3[nH]ccc23)n1
[1]
  GI50: 2.56 µM and 4.97 µM
  TGI: > 100 µM
[2]
  GI50: 1.95 µM and 3.39 µM
  TGI: 12.8 µM and > 10 µM
[3]
  GI50: 1.69 µM and 2.38 µM
  TGI: 9.96 µM and > 10 µM
[4]
  GI50: 0.417 µM and 0.611 µM
  TGI: 39 µM and > 10 µM
[5]
  GI50: 7.28 µM and 7.53 µM
  TGI: > 100 µM
[6]
  GI50: 1.04 µM and 2.1 µM
  TGI: > 100 µM
[7]
  GI50: 2.27 µM and 3.62 µM
  TGI: 40.9 µM and > 10 µM
[8]
  GI50: 1.19 µM and 1.99 µM
  TGI: 8.03 µM and > 10 µM

## COc1ccccc1NC(=O)c1sc2nc3c(cc2c1N)C(=O)CCC3
[1]
  GI50: > 100 µM
  TGI: > 100 µM
[2]
  GI50: > 100 µM
  TGI: > 100 µM
[3]
  GI50: 2.86 µM
  TGI: > 100 µM
[4]
  GI50: 4.8 µM
  TGI: > 100 µM
[5]
  GI50: 2.91 µM
  TGI: > 100 µM
[6]
  GI50: 3.06 µM
  TGI: > 100 µM
[8]
  GI50: 3.97 µM
  TGI: > 100 µM
[9]
  GI50: > 100 µM
  TGI: > 100 µM

## Clc1ncnc(Cl)c1Cl
[1]
  TGI: > 100 µM
[3]
  TGI: > 100 µM
[4]
  TGI: > 100 µM
[5]
  TGI: > 100 µM
[6]
  TGI: > 100 µM
[7]
  TGI: > 100 µM
[8]
  TGI: > 100 µM
[9]
  TGI: > 100 µM

## O=C(O)CCNc1ccccc1C(=O)O
[2]
  TGI: > 100 µM
[3]
  TGI: > 100 µM
[4]
  TGI: > 100 µM
[5]
  TGI: > 100 µM
[6]
  TGI: > 100 µM
[7]
  TGI: > 100 µM
[8]
  TGI: > 100 µM
[9]
  TGI: > 100 µM

## Cc1cccc(NC(=O)CCc2ccc(N3C(N)=NC(N)=NC3(C)C)cc2)c1
[1]
  GI50: 3.34 µM
  TGI: > 100 µM
[2]
  GI50: 0.641 µM
  TGI: > 100 µM
[3]
  GI50: > 29.2 µM
  TGI: > 100 µM
[4]
  GI50: 1.24 µM
  TGI: > 100 µM
[5]
  GI50: > 65.2 µM
  TGI: > 100 µM
[6]
  GI50: 0.454 µM
  TGI: > 100 µM
[7]
  GI50: 18.4 µM
  TGI: > 100 µM
[8]
  GI50: 1.93 µM
  TGI: > 100 µM
